Data: patent publication US5744621A, “Irreversible HIV protease inhibitors, intermediates, compositions and processes for the preparation thereof” (Lucky Limited., priority 1992, dated 1998)
Where two headings read alike, the source gives them in different places.

Legend:
HIV-1 = experiment: Anti-viral activity: syncytium formation (Sup T1) or reverse transcriptase assay (H9); format: cell-based; details: Human immunodeficiency virus 1, SUP-T1
Description: The anti-viral activity of the compounds of the present invention was determined by measuring the concentration of the compounds that inhibits the proliferation of HIV by 50%(IC50) through a survey for syncytium formation or reverse transcriptase assay.
1×10^5 cells of each of H9(ATCC HTB 176) and Sup T1 cell lines were added to the wells of a 24-well microtiter plate and various concentrations so the compounds of the present invention were added thereto. 200 TCID50 (200-fold of 50% tissue culture infection dose) of HIV-1 inoculum and rpmi-1640 medium(Sigma Chemical Co., U.S.A) were added successively to the wells and the plate was incubated at 37° C. In case of Sup T1, the number of syncytium formed was investigated after 3 to 9 days. IC50 of each compound was determined by measuring the concentration of inhibitor that can reduce the number of syncytium by 50% compared with those formed in the same condition without the inhibitor.
In case of H9, three-quarters(3/4) of the culture medium in volume was refreshed every 3 days; and 6 ml of the culture fluid was centrifuged at 1000 rpm for 10 minutes. To 5 ml of the resulting supernatant were added 2.5 ml of 30% polyethyleneglycol(PEG, M.W. 6000-8000) and 0.4M NaCl. The resulting solution was allowed to stand at 0° C. overnight to precipitate virus particles. The solution was centrifuged at 2000 rpm for 45 minutes, the supernatant was discarded therefrom and the precipitate was diluted with 20 μl of a reverse transcriptase suspension buffer(50 mM tris-HCl, pH 7.5, 1 mM dithiothreitol, 20% glycerol, 0.25M KCl and 0.25% Triton X-100). The resulting suspension was stored in an Effendorf tube at -70° C. until used. A procedure of freezing said virus suspension for 2 minutes in dry ice and thawing same at 37° C. for 2 minutes was repeated three times and the resulting suspension was centrifuged at 4° C. The resulting supernatant was used in carrying out the reverse transcriptase assay.
10 μl of the said viral suspension was added to a solution of: 10 μl of buffer solution(250 mM tris-HCl, pH 7.5, 37.5 mM MgCl2, 0.25% triton X-100), 1.2 μl of 200 mM dithiothreitol, 5 μl of 10 μM oligo(dT)-poly(A)(Boeringer Manheim, 12-18 oligomer), 1 μl(1 μCi) of ^3 H-TTP(Thymidinetri-phosphate) and 23.6 μl of water; and the resulting mixture was placed at 37° C. After 1 hour, the mixture was poured onto a WHATMAN DEB1 filter and the filter was washed three times with 5 ml of 2×SSC buffer solution(17.53 g of sodium chloride, 8.82 g of sodium citrate, pH 7.0, 1 liter of water) for about 10 minutes each time and twice with 95% ethanol for 10 seconds. The filter was put onto aluminium foil and dried with an infra-red lamp. The amount of radioactivity was counted using a liquid scintillation counter. IC50 of each compound was determined by measuring the concentration of inhibitor that can reduce the activity of reverse transcriptase by 50%.

[1] = Cytotoxicity in H9 or Sup T1 cells (trypan blue dye exclusion); format: cell-based; details: human
Description: To determine the cytotoxicity of the compounds of the present invention, 0.1 μM to 100 μM of the novel compounds were added to H9 cell or Sup T1 cell and the mixture was cultured on a rpmi-1640 medium at 37° C. The medium was refreshed every 3 days and the extent of cell proliferation was observed using Hemacytometer according to the trypan blue dye exclusion technique which is well known in the art. CT50 (i.e., concentration that causes death of cells by 50%) was determined. For reference, AZT(Burrows-Wellcome), A-75925 (Abbott, C2 symmetric compound) and Ro-31-8959(F. Hofmann-La Roche) were used as control compounds.

HIV-1 protease = target: T1, HIV-1 protease (Human immunodeficiency virus type 1 group M subtype B, UniProt P04585); experiment: Assay for inhibitory effect on HIV protease (residual enzyme activity, HPLC of substrate cleavage); format: biochemical
T1 construct: 2.6 nM of HIV-1 protease
Description: The inhibitory effect on HIV protease of the compounds of the present invention was determined by the following method.
To a buffer solution comprising 50 mM sodium acetate, pH 5.5, 1 mM dithiothreitol(DTT), 1 mM ethylenediaminetetraacetate (EDTA), 0.75M ammonium sulfate, 0.2M sodium chloride and 0.1% NP40(NONIDET P-40; Sigma Chemical Co., U.S.A.), were added various concentrations of a compound selected from Compound Nos. 1 to 92 to prepare a preincubation solution. Inhibition reaction was started with the addition of 2.6 nM of HIV-1 protease to the preincubation solution. Each 10 μl of the reaction solution was taken at a given time interval and added to 80 μl of assay solution containing 100 μM of reaction substrate in the same buffer solution as above to assay for the residual enzyme activity. In this context, an oligopeptide(KM =20 μM) consisting of 11 amino acids, i.e., Ser-Ile-Ala-Glu-(p-NO2)-Phe-Leu-Val-Arg-Ala-Lys-His, was used as a reaction substrate, which oligopeptide was to be cleaved in two by the breakage of amide bond between (P--NO2)-Phe and Leu upon the attack of HIV protease. The reaction rate was determined by subjecting the substrate before the reaction and the product after the reaction to HPLC separation and then measuring the relative amount of the product, using the strong absorbance of (p--NO2)-Phe at 280 nm. The amount of reduction in enzyme activity according to the elapsed time were measured and the natural logarithmic values(ln) of the measured amounts were plotted against time to obtain a linear graph and kobs was calculated from the slope of the linear graph.
The inhibition constant was calculated according to the following equation: [formula] wherein: kobs is a rate constant indicating the rate of reduction in enzyme activity according to the elapsed time under the presence of a given concentration of inhibitor,
kina is a rate constant indicating the rate of chemical reaction forming covalent bond between an enzyme and an inhibitor in Michaelis-Menten complex,
KI is an inhibition constant indicating the dissociation rate of Michaelis-Menten complex into an enzyme and an inhibitor, and
[I] means the inhibitor concentration.
The above equation is applicable to an experiment carried out under the condition in which the concentration of inhibitor is far higher than that of enzyme(Steady State Kinetic). […] The inhibition constants KI and kina and second order rate constant kina /KI were obtained by inputting the value of [E]/([E]+[EI]+[EI']) into KINSIM/FITSIM program. FIG. 1 exemplifies a result of the experiment determining the binding ratio of enzymes and inhibitors, which result was obtained by reacting the enzyme and the inhibitor in various concentration ratios for a sufficient time period(at least for 30 minutes), and then plotting the relative activity of the remaining enzyme against [conc. of inhibitor]/[conc. of enzyme].

[2] = concentration that causes death of cells by 50%, H9 or Sup T1 cells, 37° C, read-out: CT50 (the source's name)
[3] = HIV-1 protease 2.6 nM, pH 5.5, inhibition constant
[4] = HIV-1 protease 2.6 nM, pH 5.5, rate constant of covalent bond formation, read-out: kina (converted)
[5] = second order rate constant, HIV-1 protease, pH 5.5, read-out: kina /KI (converted)

| Structure (SMILES) | IC50 (HIV-1) [µM] | CC50 [1, 2] [µM] | Ki (HIV-1 protease; [3]) [µM] | kinact (HIV-1 protease; [4]) [s⁻¹] | kinact/KI (HIV-1 protease; [5]) [M⁻¹ s⁻¹] | Ki (HIV-1 protease) [µM] | kinact (HIV-1 protease; pH 5.5, read-out: kina) [s⁻¹] | kinact/KI (HIV-1 protease; pH 5.5, read-out: kina /KI) [M⁻¹ s⁻¹] | CC50 ([1]; h9 or sup t1 cells) [µM] |
| --- | --- | --- | --- | --- | --- | --- | --- | --- | --- |
| CC[C@H](C)[C@H](NC(=O)C[C@@H]1O[C@@H]1[C@H](Cc1ccccc1)NC(=O)[C@H](CC(N)=O)NC(=O)c1ccc2ccccc2n1)C(=O)NCc1ccccc1 [compound 8] | 7 | > 100 | 0.06 | 0.002 | 33300 | – | – | – | – |
| CC(C)[C@H](NC(=O)OCc1ccccc1)C(=O)NC[C@@H]1O[C@@H]1[C@H](Cc1ccccc1)NC(=O)[C@@H](NC(=O)OCc1ccccc1)C(C)C [compound 71, 4S-1,4-bis[N-(N'-benzyloxycarbonyl-L-valinyl)amino]-5-phenyl-(2S,3R)-(Z)-epoxypentane] | 0.08 | > 100 | – | – | – | 0.00018 | 0.00233 | 1.28e+06 | – |
| NC(=O)C[C@H](NC(=O)OCc1ccccc1)C(=O)NC[C@@H]1O[C@@H]1[C@H](Cc1ccccc1)NC(=O)[C@H](CC(N)=O)NC(=O)OCc1ccccc1 [compound 72] | 0.5 | – | 0.11 | 0.00367 | 33300 | – | – | – | > 100 |
| NC(=O)C[C@H](NC(=O)c1cnc2ccccc2n1)C(=O)N[C@@H](Cc1ccccc1)[C@H]1O[C@H]1CCc1ccccc1 [compound 63, 2-L-(N-quinoxaline-2-ylcarbonyl-L-asparaginyl)amino-(3R,4S)-epoxy-1,6-diphenylhexane] | 1 to 2 | > 100 | 0.25 | 0.00483 | 20000 | – | – | – | – |
| NC(=O)C[C@H](NC(=O)c1ccc2ccccc2n1)C(=O)NC[C@@H]1O[C@@H]1[C@H](Cc1ccccc1)NC(=O)[C@H](CC(N)=O)NC(=O)c1ccc2ccccc2n1 [compound 84] | 1 | > 100 | 0.5 | 0.00333 | 6670 | – | – | – | – |
| CC[C@H](C)[C@H](NC(=O)C[C@@H]1O[C@@H]1[C@H](Cc1ccccc1)NC(=O)[C@H](CC(N)=O)NC(=O)COc1cccc2ccccc12)C(=O)OC [compound 3] | 3 | > 100 | 0.04 | 0.002 | 50000 | – | – | – | – |
| CC(C)[C@H](NC(=O)OCc1ccccn1)C(=O)NC[C@@H]1O[C@@H]1[C@H](Cc1ccccc1)NC(=O)[C@@H](NC(=O)OCc1ccccn1)C(C)C [compound 77] | 1 | > 100 | 0.1 | 0.004 | 40000 | – | – | – | – |
| CC[C@H](C)[C@H](NC(=O)C[C@@H]1O[C@@H]1[C@H](Cc1ccccc1)NC(=O)[C@H](CC(N)=O)NC(=O)c1ccc2ccccc2n1)C(=O)NC [compound 25, N-{5-L-[[N-(2-quinolinecarbonyl)-L-asparaginyl]amino]-(4R,3S)-epoxy-6-phenylhexanoyl}-L-isoleucinyl-methylamide] | 0.5 | > 100 | 0.02 | 0.003 | 150000 | – | – | – | – |
| CC[C@H](C)[C@H](NC(=O)C[C@@H]1O[C@@H]1[C@H](Cc1ccccc1)NC(=O)[C@H](CC(N)=O)NC(=O)c1ccc2ccccc2n1)C(=O)OC [compound 2, N-[5-L-[[N-(2-quinolinecarbonyl)-L-asparaginyl]amino]-epoxy-6-phenyl-hexanoyl]-L-isoleucine methyl ester] | 0.2 | > 100 | 0.018 | 0.00367 | 200000 | – | – | – | – |
| CC(C)(C)OC(=O)NC[C@@H]1O[C@@H]1[C@H](Cc1ccccc1)NC(=O)[C@H](CC(N)=O)NC(=O)c1ccc2ccccc2n1 [compound 83] | 0.75 | > 10 | 0.4 | 0.02 | 50000 | – | – | – | – |
| CC(C)[C@H](NC(=O)N(C)Cc1ccccn1)C(=O)NC[C@@H]1O[C@@H]1[C@H](Cc1ccccc1)NC(=O)[C@@H](NC(=O)N(C)Cc1ccccn1)C(C)C [compound 80] | 0.5 | > 100 | 0.15 | 0.00533 | 35000 | – | – | – | – |
| CC(C)C(Cc1ccccc1)NC(=O)C[C@@H]1O[C@@H]1[C@H](Cc1ccccc1)NC(=O)[C@H](CC(N)=O)NC(=O)c1ccc2ccccc2n1 (stereo partly shown) [compound 48] | 0.5 | ~5 | 0.6 | 0.035 | 58300 | – | – | – | – |
| CC(C)[C@H](NC(=O)OCc1ccccc1)C(=O)NC[C@@H]1O[C@@H]1[C@H](Cc1ccccc1)NC(=O)[C@H](CC(N)=O)NC(=O)OCc1ccccc1 [compound 75] | 1 | > 10 | > 10 | – | – | – | – | – | – |
| COC(=O)C(CCC(N)=O)NC(=O)C[C@@H]1O[C@@H]1[C@H](Cc1ccccc1)NC(=O)[C@H](CC(N)=O)NC(=O)c1ccc2ccccc2n1 (stereo partly shown) [compound 12] | 7 | > 100 | 0.37 | 0.005 | 13500 | – | – | – | – |
| NC(=O)C[C@H](NC(=O)COc1cccc2ccccc12)C(=O)N[C@@H](Cc1ccccc1)[C@H]1O[C@H]1CCc1ccccc1 [compound 61, 2-L-(N-1-naphthoxyacetyl-L-asparaginyl)amino-(3R,4S)-epoxy-1,6-diphenylhexane] | 1 to 2 | > 100 | 0.25 | 0.0005 | 2000 | – | – | – | – |
| CC[C@H](C)[C@H](NC(=O)C[C@@H]1O[C@@H]1[C@H](CC1CCCCC1)NC(=O)[C@@H](NC(=O)N(C)Cc1ccccn1)C(C)C)C(=O)OC [compound 39, N-{5-L-[[N,N-(2-pyridylmethyl)(methyl)-amino]carbonylvalinyl]amino-(4R, R3S)-epoxy-6-(cyclohexylmethyl)-hexanoyl}-L-isoleucine methyl ester] | 1 | > 100 | > 10 | – | – | – | – | – | – |
